# Data reported in patent US20050020593A1, “Aryl-heteroaromatic compounds, compositions comprising them and use” (Aventis Pharma, priority 2003, published 2005).
# Tests used:
# HCT116 cells = assay: Inhibition of proliferation of the human colon tumor line HCT116 ([14C]thymidine incorporation); assay type: cell-based; details: HCT-116, 48 hours at 37° C.
# Procedure: Assay for Determining the Inhibition of Proliferation of the Human Colon Tumor Line HCT116
# The proliferation of HCT116 cells is evaluated by measuring the incorporation of [^14C]thymidine in the following way. The HCT116 cells (from ATCC) are cultured in a DMEM medium (Gibco) which contains 10% foetal calf serum and antibiotics (1% penicillin, 1% streptomycin). To carry out the proliferation assay, the cells are seeded into 96-well Cytostar microplates (Amersham), at a rate of 5000 cells per well. The [^14C]thymidine (0.1 μCi/well) and the products to be evaluated are then added. Variable concentrations of products up to 10 μM are used; the DMSO (solvent used to dissolve the products) should not exceed 0.5% in the medium. 48 hours after incubation at 37° C., the radioactivity incorporated into the cells is measured by counting the plates in a Tri-Lux counter (Wallac). The IC50 value is defined as the concentration of product which reduces the radioactivity by 50% compared with an untreated control. A product with an IC50 value of less than 10 μM is considered to be cytotoxic.
# Tubulin = target: T1, Tubulin (Sus scrofa, UniProt P02550+P02554); assay: Assessment of the inhibition of tubulin polymerization (turbidimetry at 350 nm); assay type: biochemical; details: tubulin purified from pig brains, 10 μM; concentration inhibiting the rate of polymerization by 50%
# T1 construct: Tubulin is purified from pig brains according to published methods; from tissue; host or cells: pig brain
# Procedure: Tubulin is purified from pig brains according to published methods (Shelanski et al., 1973, Proc. Natl. Acad. Sci. USA, 70, 765-768, Weingarten et al., 1975, Proc. Natl. Acad. Sci. USA, 72, 1858-1862). Briefly, the brains are ground and centrifuged in an extraction buffer. The tubulin, present in the extract supernatant, is subjected to two successive cycles of polymerization at 37° C. and depolymerization at 4° C., before being separated from the MAPS (microtubule associated proteins) by chromatography on a phosphocellulose P11 column (Whatman). The tubulin thus isolated is more than 95% pure. It is stored in a buffer known as RB/2 30% glycerol, the composition of which is 50 mM MES-NaOH [2-(N-morpholino)ethanesulfonic acid], pH 6.8; 0.25 mM MgCl2; 0.5 mM EGTA; 30% (v/v) glycerol, 0.2 mM GTP (guanosine 5′-triphosphate).
# The polymerization of the tubulin into microtubules is monitored by turbidimetry as follows: the tubulin is adjusted to a concentration of 10 μM (1 mg/ml) in the RB/2 30% glycerol buffer, to which are added 1 mM GTP and 6 mM MgCl2. The polymerization is initiated by increasing the temperature from 6° C. to 37° C. in a cuvette with 1 cm optical path length, placed in a Uvikon 931 spectrophotometer (Kontron) equipped with a thermostatically-regulated cuvette holder. The increase in turbidity of the solution is followed at 350 nm.
# The products are dissolved at 10 mM in DMSO and added at variable concentrations (0.5 to 10 μM) to the tubulin solution before polymerization. The IC50 value is defined as the concentration of product which inhibits the rate of polymerization by 50%. A product with an IC50 value of less than or equal to […] is considered to be very active.
# T1 sequence (P02550 whole entry): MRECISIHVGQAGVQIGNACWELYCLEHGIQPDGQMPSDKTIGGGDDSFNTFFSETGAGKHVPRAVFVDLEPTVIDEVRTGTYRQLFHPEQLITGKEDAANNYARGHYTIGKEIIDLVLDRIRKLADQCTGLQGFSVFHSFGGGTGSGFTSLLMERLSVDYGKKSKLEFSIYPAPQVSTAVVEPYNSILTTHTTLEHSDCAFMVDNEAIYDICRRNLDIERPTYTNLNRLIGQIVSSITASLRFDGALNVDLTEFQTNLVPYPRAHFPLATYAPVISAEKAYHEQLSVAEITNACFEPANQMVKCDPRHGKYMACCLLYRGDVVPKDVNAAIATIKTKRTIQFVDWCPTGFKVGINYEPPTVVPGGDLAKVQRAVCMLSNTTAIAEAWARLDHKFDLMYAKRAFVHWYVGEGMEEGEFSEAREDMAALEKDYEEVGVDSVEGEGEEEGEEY
# T1 sequence (P02554 whole entry): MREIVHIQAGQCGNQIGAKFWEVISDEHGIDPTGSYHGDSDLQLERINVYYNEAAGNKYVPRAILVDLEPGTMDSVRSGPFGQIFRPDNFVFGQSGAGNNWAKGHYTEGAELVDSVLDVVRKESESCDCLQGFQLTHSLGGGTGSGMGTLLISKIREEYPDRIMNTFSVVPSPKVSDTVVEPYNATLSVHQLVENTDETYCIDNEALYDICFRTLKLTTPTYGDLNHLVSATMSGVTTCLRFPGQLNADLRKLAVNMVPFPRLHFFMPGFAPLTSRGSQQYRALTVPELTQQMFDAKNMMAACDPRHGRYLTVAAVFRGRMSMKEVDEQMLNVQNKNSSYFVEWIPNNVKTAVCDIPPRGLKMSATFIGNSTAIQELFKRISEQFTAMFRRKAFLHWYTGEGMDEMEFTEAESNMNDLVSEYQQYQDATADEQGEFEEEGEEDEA
IC50 (HCT116 cells) [nM],IC50 (Tubulin) [nM],melting point [°C],Compound
990,1100,,"O=C(c1c(-c2ccccc2)sc2ccccc12)N1CCN(c2cccc(Cl)c2)CC1 [Example 4, [4-(3-chlorophenyl)piperazin-1-yl](2-phenylbenzo[b]thiophen-3-yl)methanone]"
,,98,"COc1cc(OC)cc(N2CCN(C(=O)c3cc4n(c3-c3ccccc3)CSC4)CC2)c1 [Example 14, [4-(3,5-dimethoxyphenyl)piperazin-1-yl](5-phenyl-1H-pyrrolo-[1,2-c]thiazol-6-yl)methanone]"
76,800,,"O=C(c1cc2ccccc2n1-c1ccccc1)N1CCN(c2cccc(Cl)c2)CC1 [Example 1, [4-(3-chlorophenyl)piperazin-1-yl](1-phenyl-1H-indol-2-yl)methanone]"
,2600,125,"COc1ccc2c(c1)cc(C(=O)N1CCN(c3cccc(Cl)c3)CC1)n2-c1ccccc1 [Example 10, [4-(3-chlorophenyl)piperazin-1-yl](5-methoxy-1-phenyl-1H-indol-2-yl)methanone]"
,800,188,"O=C(C1=Nc2ccc(Cl)cc2C1c1ccccc1)N1CCN(c2cccc(Cl)c2)CC1 (stereo not drawn) [Example 11, [4-(3-chlorophenyl)piperazin-1-yl](5-chloro-3-phenyl-1H-indol-2-yl)methanone]"
9.8,500,,COc1cc(OC)cc(N2CCN(C(=O)c3c4ccccc4nn3-c3ccccc3)CC2)c1 [Example 3]
,1100,146,"COc1cc(OC)cc(N2CCN(C(=O)c3cc4ccccc4n3-c3ccccc3)CC2)c1 [Example 8, [4-(3,5-dimethoxyphenyl)piperazin-1-yl](1-phenyl-1H-indol-2-yl)methanone]"
,1200,165,"COc1cc(OC)cc(N2CCN(C(=O)c3cc4cc(OC)ccc4n3-c3ccccc3)CC2)c1 [Example 9, [4-(3,5-dimethoxyphenyl)piperazin-1-yl](5-methoxy-1-phenyl-1H-indol-2-yl)methanone]"
,900,,"NC(=O)c1cccc(N2CCN(C(=O)c3cc4ccccc4n3-c3ccccc3)CC2)c1 [Example 7, [4-(3-carboxamidophenyl)piperazin-1-yl](1-phenyl-1H-indol-2-yl)methanone]"
6,800,,O=C(c1c2ccccc2nn1-c1ccccc1)N1CCN(c2cccc(Cl)c2)CC1 [Example 2]
